From patent US10052310B2, “Separase inhibitors and uses thereof” (Baylor College of Medicine, priority 2013, dated 2018)
Entries after “also recorded” stand apart in the source; their conditions may differ.

How the values were obtained:
[1] = tested on: pediatric GBM tumor (#4687) orthotopic xenograft; test: Survival analysis, orthotopic xenograft of pediatric GBM tumor; assay type: in vivo, SCID-beige mice; settings: 10 mg/kg daily ip, 5 days a week, 4 weeks, n=6/group
Procedure: FIG. 10 provides data relating to separase overexpression in Pediatric glioblastoma (GBM) and the effect of Sepin-1 in inhibiting the growth of glioblastoma cells in vitro and in vivo. […] SCID-beige mice after two weeks of transplantation were treated at a dose of 10 mg/kg daily ip for 5 days a week for 4 weeks with either Sepin-1 or vehicle (n=6/group).

C57B6 mice = test: Toxicity of Sepin-1 in mice, single intravenous dose; assay type: in vivo
Procedure: To investigate the toxicity in mice, Applicants injected Sepin-1 at a single dose in the range of 50-100 mg/kg body weight into C57B6 mice via tail vein.
Based on the above results, Applicants expanded this study to identify the Severely Toxic Dose (i.e., dose that causes death or irreversible severe toxicity, in 10% of rodents, STD10) using more mice injected at 75 to 90 mg/Kg range. A dose of 80 mg/Kg was estimated as STD10 for Sepin-1 in these mice.
To test Maximum Tolerated Dose (MTD) and No Observable Effect Level (NOEL) of Sepin-1, Applicants applied 200 μl Sepin-1 (diluted in PBS) one time at an acute dose range of 50 to 100 mg/kg body weight to 8-10 weeks old C57B6 mice (˜25 g) through intravenous tail vein injection (n=3/group). Except for the MTD dose, after Sepin-1 injection, the mice were returned to the cage and their reaction to the drug was monitored from one week to several months. Complete necropsy, blood chemistry and pathology of the Sepin-1 injected mice were carried out by the Comparative Pathology Laboratory at the Baylor College of Medicine.

MCF7 xenografts = test: Growth inhibition of MCF7 xenograft tumors; assay type: in vivo, SCID-beige mice
Procedure: (§1) For treatment studies, MCF7 xenografts (ER+ PR+ HER2−) were generated by injection of one million cultured cells grown under standard in vitro conditions as previously described (Proc. Natl. Acad. Sci. U. S. A 105, 2008, 13033-13038). Donor tumors for PDX lines MC1 and BCM-5471 were divided into small fragments and retransplanted into the fat pat of recipient SCID Beige mice (5 mice per group). When the tumors reached approximately ˜200 mg, mice were treated with either vehicle or Sepin-1. Sepin-1 was injected at dose of 10 mg/kg daily for 5 days a week for 3 weeks. […] Vehicle injected mice served as controls. Size of the xenografts were measured every four days using calipers and tumor weight was estimated using the guidelines by NCI for xenograft evaluation (http://ncifrederick.cancer.gov/Lasp/Acuc/Frederick/Media/Documents/ACUC14.pdf). After 3 weeks treatment, the tumors were harvested and fixed in 10% Buffed Formalin Phosphate (Fisher Scientific, Pittsburgh, Pa.) overnight. The tumor tissues were washed with PBS for 3×30 min; dehydrated for 1 h at 70%, 80%, 90% and 100% two times; and immerged in Xylene several times until the tissues became clear. The samples were embedded in wax and sectioned with 5 μm in thickness. All mice were maintained in accordance with the NIH Guide for the Care and Use of Laboratory Animals with approval from the Baylor College of Medicine Institutional Animal Care and Use Committee.

Separase = target: T1, Separase (Homo sapiens, UniProt Q14674); test: In vitro cleavage of Myc-Rad21 assay; assay type: biochemical; settings: Sepin-1 50 μm; in vitro transcribed and translated Myc-Rad21
T1 construct: made in house; host or cells: 293T cells; released from IgG-Agarose by TEV protease
Procedure: Myc-Rad21 protein was prepared by using pCS2MT Rad21 plasmid ([…]) as the template and the TNT SP6 High-Yield Wheat Germ Protein Expression kit (Promega, Madison, Wis.). Myc-Rad21 protein was mixed with Separase with or without the presence of Sepin-1. The final concentration of Sepin-1 was 50 μM. The reaction mixture was incubated in a 37° C. water bath for 1 h. The cleavage of myc-Rad21 was immunoblotted with Rad21 pAb.

[2] = tested on: BCM-5471 triple-negative breast tumor xenograft; test: Growth inhibition of patient-derived xenograft BCM-5471; assay type: in vivo, SCID-beige mice; settings: 10 mg/kg intraperitoneal injection, three week treatment
Source text: (§2) Patient-derived xenograft (PDX) lines MC1 (ER− PR− HER2−) (Proc Natl Acad Sci USA. 100, 2003, 3983-3988) and BCM-5471 (ER− PR− HER2−) (Cancer Res. 73, 2013, 4885-4897) were maintained as described (Cancer Res. 73, 2013, 4885-4897) by serial transplantation into SCID Beige immunocompromised host mice whose endogenous mammary epithelium was removed surgically (Cancer Res. 19, 1959, 515-20).
as §1, with “The tumor tissues were washed with PBS for 3×30 min; dehydrated for 1 h at 70%, 80%, 90% and 100% two times; and immerged in Xylene several times until the tissues became clear. The samples were embedded in wax and sectioned with 5 μm in thickness. All mice were maintained in accordance with the NIH Guide for the Care and Use of Laboratory Animals with approval from the Baylor College of Medicine Institutional Animal Care and Use Committee.” left out

MCF7 = test: MTT in vitro cytotoxicity assay; assay type: cell-based, human
Procedure: (§3) The inhibitory effect of Sepin-1 on cell growth was assayed using the 3-(4,5-dimethylthiazol-2yl)-2,5-diphenyl-tetrazolium bromide (MTT) colorimetric dye reduction method (Cancer Chemother. Pharmacol., 2006, 58, 13-23). One hundred thirty-five μl of exponentially growing cancer cells were plated at a density of 0.4-1.0×10^5 cells/well in a 96-well microtiter plate. After 16 h, Sepin-1 at specified concentrations was added to each well. After 72 h of continuous drug exposure, 15 μl of 5 mg/ml MTT was added to each well and the plates were incubated for 4 h at 37° C. Medium was replaced with 150 μl of DMSO to solubilize the formazan, and the optical density (OD) was measured at 550 nm using a microplate spectrophotometer (Anthos Analytical, Durham, N.C., USA). Cell viability was calculated by subtracting the background OD of media alone from the OD of test wells, then dividing by the OD of the control (untreated) wells. Replicates of 3 wells were used for each drug concentration. The in vitro cytotoxicity assay was repeated once and the IC50 reported was the average of two independent experiments.

mice = test: Repeated intraperitoneal dosing tolerability in mice; assay type: in vivo; settings: 10 mg/kg intraperitoneal injection daily for six weeks, 12 mice
human cancer cell lines = test: MTT assay, summary over all cell lines; assay type: cell-based; settings: all cell lines of Table 1, 72 h, read-out: range of IC50 over the different cell lines
Procedure: Applicants used the MTT assay to test the inhibitory effect of Sepin-1 on the growth of a variety of human cancer cell lines, including leukemia, breast cancer and neuroblastoma.
as §3

[3] = tested on: MC1 triple-negative breast tumor xenograft; test: Growth inhibition of patient-derived xenograft MC1; assay type: in vivo, SCID-beige mice; settings: 10 mg/kg intraperitoneal injection, three week treatment
Source text: as §2
as §1, with “The tumor tissues were washed with PBS for 3×30 min; dehydrated for 1 h at 70%, 80%, 90% and 100% two times; and immerged in Xylene several times until the tissues became clear. The samples were embedded in wax and sectioned with 5 μm in thickness. All mice were maintained in accordance with the NIH Guide for the Care and Use of Laboratory Animals with approval from the Baylor College of Medicine Institutional Animal Care and Use Committee.” left out

[4] = <80 mg/kg single dose via tail vein
[5] = MCF7 xenograft tumors treated with Sepin-1 versus vehicle

T1 sequence (Q14674 whole entry): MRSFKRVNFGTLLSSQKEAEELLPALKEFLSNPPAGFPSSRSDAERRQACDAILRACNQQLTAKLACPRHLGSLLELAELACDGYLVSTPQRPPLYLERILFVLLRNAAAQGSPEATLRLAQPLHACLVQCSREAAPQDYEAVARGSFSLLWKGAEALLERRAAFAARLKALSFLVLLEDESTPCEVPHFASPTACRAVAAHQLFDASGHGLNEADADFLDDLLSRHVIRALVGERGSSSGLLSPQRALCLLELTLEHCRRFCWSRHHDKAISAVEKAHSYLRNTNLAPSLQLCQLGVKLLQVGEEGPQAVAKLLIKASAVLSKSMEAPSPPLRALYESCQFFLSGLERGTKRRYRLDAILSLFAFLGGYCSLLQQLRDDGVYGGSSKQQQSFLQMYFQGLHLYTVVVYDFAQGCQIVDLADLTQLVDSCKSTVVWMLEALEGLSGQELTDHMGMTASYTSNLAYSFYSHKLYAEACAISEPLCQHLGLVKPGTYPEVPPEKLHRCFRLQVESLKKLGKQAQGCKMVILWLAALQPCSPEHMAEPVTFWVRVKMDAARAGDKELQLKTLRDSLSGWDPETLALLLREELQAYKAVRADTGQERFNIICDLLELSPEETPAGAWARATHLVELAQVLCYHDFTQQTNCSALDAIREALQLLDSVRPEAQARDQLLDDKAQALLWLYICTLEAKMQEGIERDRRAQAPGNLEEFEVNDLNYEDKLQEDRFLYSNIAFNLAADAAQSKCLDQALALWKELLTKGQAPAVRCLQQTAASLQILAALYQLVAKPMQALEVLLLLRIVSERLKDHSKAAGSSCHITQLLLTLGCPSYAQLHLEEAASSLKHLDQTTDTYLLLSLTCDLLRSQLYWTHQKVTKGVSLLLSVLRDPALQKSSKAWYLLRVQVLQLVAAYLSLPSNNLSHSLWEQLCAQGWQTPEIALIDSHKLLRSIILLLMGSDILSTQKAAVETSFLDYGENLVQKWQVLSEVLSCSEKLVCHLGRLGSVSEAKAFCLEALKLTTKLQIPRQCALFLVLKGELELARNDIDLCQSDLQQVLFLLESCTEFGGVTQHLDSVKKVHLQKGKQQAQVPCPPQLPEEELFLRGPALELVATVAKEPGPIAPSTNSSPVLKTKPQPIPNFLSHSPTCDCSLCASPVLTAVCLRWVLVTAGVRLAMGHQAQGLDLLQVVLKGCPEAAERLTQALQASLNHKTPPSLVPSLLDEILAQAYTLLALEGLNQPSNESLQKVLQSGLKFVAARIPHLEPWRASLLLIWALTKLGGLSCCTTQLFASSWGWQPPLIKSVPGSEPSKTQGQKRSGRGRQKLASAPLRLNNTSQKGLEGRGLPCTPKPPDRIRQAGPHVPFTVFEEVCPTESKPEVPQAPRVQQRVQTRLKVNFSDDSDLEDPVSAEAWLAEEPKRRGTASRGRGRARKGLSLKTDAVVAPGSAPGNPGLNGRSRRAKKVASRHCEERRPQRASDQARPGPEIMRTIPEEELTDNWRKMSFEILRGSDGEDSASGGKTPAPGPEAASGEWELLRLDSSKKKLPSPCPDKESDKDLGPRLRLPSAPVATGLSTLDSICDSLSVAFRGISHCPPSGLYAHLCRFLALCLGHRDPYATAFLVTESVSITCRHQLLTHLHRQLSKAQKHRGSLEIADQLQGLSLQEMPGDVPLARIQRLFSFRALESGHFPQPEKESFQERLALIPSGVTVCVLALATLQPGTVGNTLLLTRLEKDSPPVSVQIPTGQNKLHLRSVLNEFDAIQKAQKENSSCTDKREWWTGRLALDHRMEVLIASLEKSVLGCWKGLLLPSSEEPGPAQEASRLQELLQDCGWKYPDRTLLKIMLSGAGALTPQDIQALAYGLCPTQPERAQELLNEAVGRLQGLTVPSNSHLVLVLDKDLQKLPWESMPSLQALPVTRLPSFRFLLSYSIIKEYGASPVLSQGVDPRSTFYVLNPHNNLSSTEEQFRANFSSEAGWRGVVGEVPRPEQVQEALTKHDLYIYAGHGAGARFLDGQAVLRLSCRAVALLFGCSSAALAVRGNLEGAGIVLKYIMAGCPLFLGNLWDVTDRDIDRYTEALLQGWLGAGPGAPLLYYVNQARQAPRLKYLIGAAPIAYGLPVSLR

CC1(C)[N+]([O-])=c2ccc([N+](=O)[O-])cc2=[N+]1[O-] [Sepin-1, 2,2-dimethyl-5-nitro-2H-benzimidazole-1,3 dioxide]
life span of treated mice [1]: significant increase in the life span
time to death after injection (C57B6 mice; 90 mg/kg single dose via tail vein): 30 to 90 min
effect of dose <80 mg/kg (C57B6 mice; [4]): no apparent effect
survival after injection (C57B6 mice; [4]): over 6 months
Severely Toxic Dose in 10% of rodents (STD10) (C57B6 mice; mice injected at 75 to 90 mg/Kg range): 80 mg/kg
histopathology of major organs (C57B6 mice; mouse, in vivo): no significant lesions in major organs
growth of MCF7 xenograft tumors (MCF7 xenografts; 10 mg/kg daily, 5 days a week, 3 weeks): inhibits the growth of xenograft tumor derived from MCF-7
apoptotic bodies in H&E stained tumor sections (MCF7 xenografts; [5]): increase of apoptotic bodies
cleaved caspase-3 staining of tumor sections (MCF7 xenografts; [5]): significantly increased
inhibition of Rad21 cleavage by activated Separase (Separase): could inhibit the Rad21 cleavage by activated Separase; also recorded: inhibits the cleavage of Separase substrate Rad21
growth of xenograft BCM-5471 versus vehicle [2]: no significant difference in growth; also recorded: more sensitive to Sepin-1 than MC-1 tumors
IC50 (MCF7; Homo sapiens, MCF7, Breast, 72 h, read-out: IC50 growth inhibition): 14.4 µM
sensitivity of MCF7 cells relative to MCF10f cells (MCF7; MCF7 versus MCF10f): over 3.3 times
weight loss and adverse effects (mice): no weight loss or apparent adverse effects
IC50 (human cancer cell lines): ≥ 1 µM
inhibition of growth of xenograft MC1 tumors versus vehicle [3]: 70%
